# Experimental data taken from patent publication US9650616B2, “Methods for increasing grain yield” (University of Florida Research Foundation, Inc., priority 2014, dated 2017).
# Positions count from the first letter of the chain named. Where “and” joins values, the source holds several entries; their conditions need not be identical. Equal entries are not always repeated. Where two headings read alike, the source gives them in different places.
# Columns and labels:
# [1] = test system: maize endosperm AGPase, heat stable ISM mutants; assay: Apparent kinetic constants with 3-PGA, 37° C., ISM mutants collectively; assay type: biochemical, Zea mays
# Method: (§1) An endpoint assay was used to determine the rate of the AGPase reaction by coupling the formation of PPi to a decrease in NADH concentration (Boehlein et al., 2008). […] The Michaelis constants (Km) were obtained by varying one substrate in the presence of saturating concentrations of the second substrate. The activation constants were obtained by varying the activator at fixed levels of both substrates. All reactions were performed at 37° C. and mixes were prewarmed before starting the reaction with enzyme. Reactions were terminated by boiling the reaction mixes for 2 minutes followed by development with 200 μl of coupling reagent (25 mM imidazole pH 7.4, 4 mM MgCl2, 1 mM EDTA, 0.2 mM NADH, 0.725 U aldolase, 0.4 U triose phosphate isomerase, 0.6 U glycerophosphate dehydrogenase, 1 mM fructose 6-phosphate and 0.8 μg purified PPi-PFK per reaction). The absorbance at 340 nm was monitored after 30 min and the amount of PPi produced was determined from a standard curve using PPi in complete reaction mixtures lacking AGPase. Blank samples contained complete reaction mixtures without enzyme and the change in absorbance between the blank and the reaction was used to calculate the amount of PPi produced. Reactions were linear with time and enzyme concentration.
# The apparent Michaelis constant and maximum velocity of each reaction was calculated from a V vs. S plots using nonlinear regression analysis and the following equation, v=VmaxS/(Km+S), where v is the measured velocity, Vmax is the maximum velocity, S is the substrate concentration. The activation constant (Ka) was obtained using the following equation: V=Vmin+Vmax*(X)/(Ka+X), where Vmin is the velocity in the absence of activator and Vmax is the change in activity from Vmin to the total velocity. X is the activator concentration, Ka is the activation constant. All linear regression was carried out using the software program Prism (Graph Pad, San Diego Calif.).
# Each mutant, comprising 1, 2, 3 or 4 changes, was grown in a large scale culture, expressed and purified according to standard procedures (Boehlein et al., 2005). […] Thus, the effects of these mutations on the kinetic constants are minimal. Next, the activation constant, Ka, was determined for each of the mutant enzymes. Here a decrease in the Ka for each of the mutants of approximately 3-6 fold was observed. This property appears to stem from the D161G change, and includes all enzymes which carry this mutation (Table 8). To be certain the effect is the result of the D161G mutation, and not the result of other single mutant changes, Q96R and Q96G were purified and characterized.
# [2] = target: T1, maize endosperm AGPase variant T142F (Zea mays, UniProt P55241+Q84PF5, T142F); assay: Apparent kinetic constants with 3-PGA, 37° C., T142F; assay type: biochemical
# T1 construct: data of Boehlein et al., 2013
# T1 sequence (P55241 46-516 T142F): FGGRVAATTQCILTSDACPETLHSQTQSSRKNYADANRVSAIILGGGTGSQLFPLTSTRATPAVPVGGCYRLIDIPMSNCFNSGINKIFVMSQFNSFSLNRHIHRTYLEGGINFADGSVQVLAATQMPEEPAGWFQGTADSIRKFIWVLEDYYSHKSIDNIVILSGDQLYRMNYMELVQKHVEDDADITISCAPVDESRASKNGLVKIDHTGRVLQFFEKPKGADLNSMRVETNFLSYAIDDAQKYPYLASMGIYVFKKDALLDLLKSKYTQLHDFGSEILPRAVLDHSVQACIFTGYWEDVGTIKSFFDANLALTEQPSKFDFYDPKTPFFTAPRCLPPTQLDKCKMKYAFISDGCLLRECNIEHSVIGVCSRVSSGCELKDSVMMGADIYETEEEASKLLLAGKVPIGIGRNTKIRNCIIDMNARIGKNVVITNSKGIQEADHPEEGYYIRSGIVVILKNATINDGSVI
# T1 sequence (Q84PF5 1-474): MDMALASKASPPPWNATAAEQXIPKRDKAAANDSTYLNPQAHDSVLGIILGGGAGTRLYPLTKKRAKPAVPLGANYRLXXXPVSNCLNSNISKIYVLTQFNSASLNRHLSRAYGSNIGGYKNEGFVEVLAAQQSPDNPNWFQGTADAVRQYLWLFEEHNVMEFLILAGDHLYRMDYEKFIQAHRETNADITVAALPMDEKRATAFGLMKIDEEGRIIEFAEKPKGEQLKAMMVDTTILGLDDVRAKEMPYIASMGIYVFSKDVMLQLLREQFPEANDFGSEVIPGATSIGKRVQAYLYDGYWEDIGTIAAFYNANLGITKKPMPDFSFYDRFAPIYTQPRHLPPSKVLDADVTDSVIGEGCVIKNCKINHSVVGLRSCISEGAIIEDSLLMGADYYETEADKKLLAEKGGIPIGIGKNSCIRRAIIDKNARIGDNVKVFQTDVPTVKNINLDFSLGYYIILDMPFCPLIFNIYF
# Method: as §1, with “Reactions were terminated by boiling the reaction mixes for 2 minutes followed by development with 200 μl of coupling reagent (25 mM imidazole pH 7.4, 4 mM MgCl2, 1 mM EDTA, 0.2 mM NADH, 0.725 U aldolase, 0.4 U triose phosphate isomerase, 0.6 U glycerophosphate dehydrogenase, 1 mM fructose 6-phosphate and 0.8 μg purified PPi-PFK per reaction).” left out, “Reactions were linear with time and enzyme concentration.” left out
# (§2) The apparent Michaelis constant and maximum velocity of each reaction was calculated from a V vs. S plots using nonlinear regression analysis and the following equation, v=VmaxS/(Km+S), where v is the measured velocity, Vmax is the maximum velocity, S is the substrate concentration. […]
# (§3) Each mutant, comprising 1, 2, 3 or 4 changes, was grown in a large scale culture, expressed and purified according to standard procedures (Boehlein et al., 2005). […] Next, the activation constant, Ka, was determined for each of the mutant enzymes. […]
# [3] = test system: maize endosperm AGPase, wild type (Maize-wt); details: read-out: G-1-P Km, absence of 3-PGA; cited from earlier work
# [4] = target: T2, maize endosperm AGPase, evolutionary mutant SH2-E (Zea mays, UniProt P55241+Q84PF5); assay: Apparent kinetic constants with 3-PGA, 37° C., SH2-E; assay type: biochemical; details: read-out: G-1-P Km
# T2 construct: data of Boehlein et al., 2013
# Method: as §1, with “Reactions were terminated by boiling the reaction mixes for 2 minutes followed by development with 200 μl of coupling reagent (25 mM imidazole pH 7.4, 4 mM MgCl2, 1 mM EDTA, 0.2 mM NADH, 0.725 U aldolase, 0.4 U triose phosphate isomerase, 0.6 U glycerophosphate dehydrogenase, 1 mM fructose 6-phosphate and 0.8 μg purified PPi-PFK per reaction).” left out, “Reactions were linear with time and enzyme concentration.” left out
# as §2, §3
# [5] = target: T2, maize endosperm AGPase, evolutionary mutant SH2-E; details: read-out: G-1-P Km, absence of 3-PGA; cited from earlier work
# [6] = test system: maize endosperm AGPase, wild type; details: cited from earlier work
# [7] = test system: maize endosperm AGPase, wild type; details: cited from earlier work; remark: listed apart in the source
# [8] = test system: maize endosperm AGPase, evolutionary mutant SH2-E (SH2E); details: cited from earlier work; for Ki: presence of 3-PGA, NC, read-out: Ki (Pi)
# [9] = test system: maize endosperm AGPase, evolutionary mutant SH2-E (SH2E); details: cited from earlier work; for Ki: read-out: Ki (Pi)
# [10] = target: T1, maize endosperm AGPase variant T142F; details: read-out: G-1-P Km, absence of 3-PGA; cited from earlier work
# [11] = target: T3, maize endosperm AGPase, large subunit variant GGR (Q96G, D161G, A443R; numbering of SEQ ID NO: 20) (Zea mays, UniProt P55241+Q84PF5, A443R/D161G/Q96G); assay: Pi inhibition in the absence of 3-PGA, GGR; assay type: biochemical
# T3 sequence (P55241 46-516 A443R/D161G/Q96G): T1 sequence (P55241 46-516 T142F) with Q51G, F97T, D116G, A398R
# T3 sequence (Q84PF5 1-474): T1 sequence (Q84PF5 1-474)
# Method: Next, the kinetics of the GGR mutant were further investigated by following Pi inhibition in the presence and absence of 3-PGA. Experiments were performed by keeping both substrates constant and non-saturating at several fixed concentrations of Pi.
# A similar examination of the Pi inhibition was then followed with GGR in the absence of 3-PGA.
# [12] = target: T3, maize endosperm AGPase, large subunit variant GGR (Q96G, D161G, A443R; numbering of SEQ ID NO: 20); assay: Pi inhibition in the presence of 3-PGA, GGR; assay type: biochemical
# Excerpt: Inhibition by Pi was then followed in the presence of the activator 3-PGA.
# [13] = Maize wt, presence of 3-PGA, varied substrate ATP
# [14] = Maize wt, presence of 3-PGA, varied substrate G-1-P
# [15] = Maize wt, absence of 3-PGA, varied substrate ATP
# [16] = Maize wt, absence of 3-PGA, varied substrate G-1-P
# [17] = absence of 3-PGA, varied substrate G-1-P
# T2 sequence (P55241 46-516, change not shown, one chain of several): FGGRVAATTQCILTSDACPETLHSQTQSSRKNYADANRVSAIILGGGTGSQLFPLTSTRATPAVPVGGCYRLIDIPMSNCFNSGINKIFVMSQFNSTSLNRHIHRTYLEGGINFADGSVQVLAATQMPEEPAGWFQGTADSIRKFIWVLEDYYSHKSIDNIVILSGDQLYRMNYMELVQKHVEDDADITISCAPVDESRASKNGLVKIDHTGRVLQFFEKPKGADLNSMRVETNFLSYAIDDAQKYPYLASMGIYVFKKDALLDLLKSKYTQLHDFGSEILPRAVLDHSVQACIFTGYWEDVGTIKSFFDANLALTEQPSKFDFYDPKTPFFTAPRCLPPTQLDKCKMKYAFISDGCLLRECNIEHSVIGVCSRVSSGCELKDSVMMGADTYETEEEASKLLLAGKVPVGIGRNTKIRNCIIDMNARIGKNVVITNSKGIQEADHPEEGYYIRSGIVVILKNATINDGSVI
smiles,measurement,setting,value
O=C(O)[C@H](O)COP(=O)(O)O [3-PGA],"affinity for the activator, 3-PGA",[1]; heat stable mutant,increased affinity
same,decrease in the Ka for 3-PGA,[1]; mutants carrying D161G versus wt maize,3-6 fold
same,Ka for 3-PGA,[2],decreased Ka
"O=P(O)(O)O[C@H]1O[C@H](CO)[C@@H](O)[C@H](O)[C@H]1O [G-1-P, glucose-1-phosphate]",Km,[3],2800 µM
same,Km,[4],30 µM
same,Km,[5],30 µM
same,largest variation in Km,"[1]; mutants versus wt maize, in the presence of 3-PGA",approximately two-fold
same,Km,"[6]; read-out: Km (G-1-P), Maize wt, presence of 3-PGA, G-1-P varied, Pi inhibition, P-MT",91 µM
same,Km,"[7]; read-out: Km (G-1-P), Maize wt, absence of 3-PGA, G-1-P varied, Pi inhibition, P-MT",22200 µM
same,Km,"[7]; wt maize AGPase, absence of activator, Pi inhibition assay, read-out: Km for both substrates",> 20000 µM
same,Km,"[8]; read-out: Km (G-1-P), presence of 3-PGA, G-1-P varied, Pi inhibition, NC",63 µM
same,Km,"[9]; read-out: Km (G-1-P), absence of 3-PGA, G-1-P varied, Pi inhibition",200 µM
same,Km,[10],90 µM
"O=P(O)(O)O [Pi, phosphate]",Ki for Pi relative to normal concentration of Pi in maize endosperm (~6.5 mM),[11],10-20 times
same,Ki,[11]; read-out: Ki for Pi with respect to both substrates,50 to 100 mM
same,Ki,"[11]; varied substrate G-1-P, read-out: Ki (Pi)",52.7 mM
same,Ki,"[6]; Maize wt, presence of 3-PGA, varied substrate ATP, P-MT, read-out: Ki (Pi)",0.37 mM
same,α (Pi interaction factor),[6]; [13],4.61 +/− 0.70
same,β (partiality of Pi inhibition),[6]; [13],0.83 +/− 0.037
same,Ki,"[6]; Maize wt, presence of 3-PGA, varied substrate G-1-P, P-MT, read-out: Ki (Pi)",1 mM
same,α (Pi interaction factor),[6]; [14],0.90 +/− 0.012
same,β (partiality of Pi inhibition),[6]; [14],0.52 +/− 0.023
same,Ki,"[6]; wt AGPase, in the presence of 3-PGA, read-out: Ki for Pi",0.5 to 1 mM
same,Ki,"[7]; Maize wt, absence of 3-PGA, varied substrate ATP, P-MT, read-out: Ki (Pi)",3.4 mM
same,α (Pi interaction factor),[7]; [15],0.063 +/− 0.034
same,β (partiality of Pi inhibition),[7]; [15],0.52 +/− 0.17
same,Ki,"[7]; Maize wt, absence of 3-PGA, varied substrate G-1-P, P-MT, read-out: Ki (Pi)",5.1 mM
same,α (Pi interaction factor),[7]; [16],0.095 +/− 0.065
same,β (partiality of Pi inhibition),[7]; [16],0.92 +/− 0.31
same,Ki,"[7]; wt maize AGPase, absence of activator, read-out: Ki for Pi",3 to 5 mM
same,Ki,[8]; varied substrate ATP,7.8 mM
same,Ki,[8]; varied substrate G-1-P,6.62 mM
same,Ki,"[9]; absence of 3-PGA, varied substrate ATP, NC",20.9 mM
same,Ki,[9]; [17],0.055 mM
same,α (Pi interaction factor),[9]; [17],0.85 +/− 0.17
same,β (partiality of Pi inhibition),[9]; [17],0.44 +/− 0.03
same,Ki,"[12]; in the presence of 3-PGA, read-out: Ki for Pi",10 to 20 mM
same,α (Pi interaction factor),"[12]; presence of 3-PGA, varied substrate ATP",2.5 and 2.5 +/− 0.66
same,Ki,"[12]; presence of 3-PGA, varied substrate ATP, L-MT, read-out: Ki (Pi)",10.7 mM
same,Ki,"[12]; presence of 3-PGA, varied substrate G-1-P, NC, read-out: Ki (Pi)",20.7 mM
